Experimental data published in patent publication US11497212B2, “Substituted thiophenyl uracils, salts thereof and the use thereof as herbicidal agents” (Syngenta Crop Protection AG, priority 2017, dated 2022).

Experiments:
Type in all cases: in vivo
[1] = tested on: Oryza sativa; assay: Crop compatibility post-emergence (greenhouse pot trial); conditions: application rate 20 g/ha
Method in brief: (§1)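 Crops grown in sandy loam in greenhouse, sprayed at one-leaf stage (2–3 weeks after sowing) with WP or EC formulations in water plus 0.5% additive, 600 L/ha. Damage scored visually after about 3 weeks versus untreated controls, 0% = like control, 100% = dead.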

[2] = tested on: Triticum aestivum; assay: as above
Method in brief: as §1

[3] = tested on: Zea mays; assay: as above; conditions: application rate 5 g/ha
Method in brief: as §1

[4] = tested on: Matricaria inodora; assay: Herbicidal action post-emergence (greenhouse pot trial); conditions: application rate 20 g/ha, scored visually after about 3 weeks vs untreated controls
Method in brief: (§2)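 Percent herbicidal efficacy, assessed by eye about 3 weeks after spraying, compares treated with untreated plants. Treatment is a post-emergence spray at the one-leaf stage, using a WP or EC preparation plus 0.5% additive in 600 L/ha of water, at 80 g/ha or lower.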

[5] = tested on: Amaranthus retroflexus; assay: as above; conditions: application rate 20 g/ha, scored visually after about 3 weeks vs untreated controls
Method in brief: as §2

[6] = tested on: Stellaria media; assay: as above; conditions: application rate 20 g/ha, scored visually after about 3 weeks vs untreated controls
Method in brief: as §2

[7] = tested on: Veronica persica; assay: as above; conditions: application rate 20 g/ha
Method in brief: as §2

[8] = tested on: Viola tricolor; assay: as above; conditions: application rate 20 g/ha
Method in brief: as §2

[9] = tested on: Pharbitis purpurea; assay: as above; conditions: application rate 20 g/ha
Method in brief: as §2

[10] = tested on: Digitaria sanguinalis; assay: as above; conditions: application rate 20 g/ha
Method in brief: as §2

[11] = tested on: Abutilon theophrasti; assay: as above; conditions: application rate 20 g/ha, scored visually after about 3 weeks vs untreated controls
Method in brief: as §2

[12] = tested on: Polygonum convolvulus; assay: as above; conditions: application rate 20 g/ha, scored visually after about 3 weeks vs untreated controls
Method in brief: as §2

[13] = tested on: Setaria viridis; assay: as above; conditions: application rate 20 g/ha, scored visually after about 3 weeks vs untreated controls
Method in brief: as §2

[14] = tested on: Echinochloa crus-galli; assay: as above; conditions: application rate 20 g/ha, scored visually after about 3 weeks vs untreated controls
Method in brief: as §2

[15] = tested on: Alopecurus myosuroides; assay: as above; conditions: application rate 20 g/ha, scored visually after about 3 weeks vs untreated controls
Method in brief: as §2

## COCCNC(=O)C(C)Sc1cc(-n2c(=O)cc(C(F)(F)F)n(C)c2=O)c(F)cc1Cl (stereo not drawn) [I.1-151]
[1]
  Oryza sativa (Efficacy in %): 20%
[2]; application rate 5 g/ha
  Triticum aestivum (Efficacy in %): 20%
[3]
  Zea mays (Efficacy in %): 20%
[4]
  Matricaria inodora (Efficacy in %): 100%
[5]
  Amaranthus retroflexus (Efficacy in %): 100%
[6]
  Stellaria media (Efficacy in %): 100%
[7]
  Veronica persica (Efficacy in %): 100%
[8]
  Viola tricolor (Efficacy in %): 100%
[9]
  Pharbitis purpurea (Efficacy in %): 100%
[10]
  Digitaria sanguinalis (Efficacy in %): 80%
[11]
  Abutilon theophrasti (Efficacy in %): 100%
[12]
  Polygonum convolvulus (Efficacy in %): 100%
[13]
  Setaria viridis (Efficacy in %): 100%

## CCC(Sc1cc(-n2c(=O)cc(C(F)(F)F)n(C)c2=O)c(F)cc1Cl)C(=O)OCC1CCCCO1 (stereo not drawn) [I.2-91, Tetrahydro-2H-pyran-2-ylmethyl 2-({2-chloro-4-fluoro-5-[3-methyl-2,6-dioxo-4-(trifluoromethyl)-3,6-dihydropyrimidin-1(2H)-yl]phenyl}sulfanyl)butanoate]
[2]; application rate 5 g/ha
  Triticum aestivum (Efficacy in %): 20%
[4]
  Matricaria inodora (Efficacy in %): 100%
[5]
  Amaranthus retroflexus (Efficacy in %): 100%
[6]
  Stellaria media (Efficacy in %): 80%
[14]
  Echinochloa crus-galli (Efficacy in %): 100%
[7]
  Veronica persica (Efficacy in %): 100%
[8]
  Viola tricolor (Efficacy in %): 100%
[15]
  Alopecurus myosuroides (Efficacy in %): 90%
[9]
  Pharbitis purpurea (Efficacy in %): 100%
[11]
  Abutilon theophrasti (Efficacy in %): 100%
[12]
  Polygonum convolvulus (Efficacy in %): 100%
[13]
  Setaria viridis (Efficacy in %): 100%

## CCC(Sc1cc(-n2c(=O)c(C)c(C(F)(F)F)n(C)c2=O)c(F)cc1Cl)C(=O)OCC1CCCO1 (stereo not drawn) [I.12-71]
[1]
  Oryza sativa (Efficacy in %): 0%
[2]; application rate 5 g/ha
  Triticum aestivum (Efficacy in %): 0%
[3]
  Zea mays (Efficacy in %): 0%
[4]
  Matricaria inodora (Efficacy in %): 80%
[5]
  Amaranthus retroflexus (Efficacy in %): 100%
[6]
  Stellaria media (Efficacy in %): 100%
[14]
  Echinochloa crus-galli (Efficacy in %): 100%
[7]
  Veronica persica (Efficacy in %): 100%
[8]
  Viola tricolor (Efficacy in %): 100%
[9]
  Pharbitis purpurea (Efficacy in %): 100%
[11]
  Abutilon theophrasti (Efficacy in %): 100%
[12]
  Polygonum convolvulus (Efficacy in %): 80%

## Cn1c(C(F)(F)F)cc(=O)n(-c2cc(SCC(C)(C)C(=O)OCC3CCCOC3)c(Cl)cc2F)c1=O (stereo not drawn) [I.48-92, Tetrahydro-2H-pyran-3-ylmethyl 3-({2-chloro-4-fluoro-5-[3-methyl-2,6-dioxo-4-(trifluoromethyl)-3,6-dihydropyrimidin-1(2H)-yl]phenyl}sulfanyl)-2,2-dimethylpropanoate]
[1]
  Oryza sativa (Efficacy in %): 10%
[2]; application rate 20 g/ha
  Triticum aestivum (Efficacy in %): 0%
[3]
  Zea mays (Efficacy in %): 10%
[5]
  Amaranthus retroflexus (Efficacy in %): 100%
[6]
  Stellaria media (Efficacy in %): 100%
[7]
  Veronica persica (Efficacy in %): 100%
[8]
  Viola tricolor (Efficacy in %): 100%
[11]
  Abutilon theophrasti (Efficacy in %): 100%
[12]
  Polygonum convolvulus (Efficacy in %): 80%
[13]
  Setaria viridis (Efficacy in %): 100%

## Cn1c(C(F)(F)F)cc(=O)n(-c2cc(SCC(C)(C)C(=O)OCC3CCOCC3)c(Cl)cc2F)c1=O [I.48-93]
[1]
  Oryza sativa (Efficacy in %): 0%
[2]; application rate 20 g/ha
  Triticum aestivum (Efficacy in %): 0%
[5]
  Amaranthus retroflexus (Efficacy in %): 100%
[6]
  Stellaria media (Efficacy in %): 100%
[7]
  Veronica persica (Efficacy in %): 100%
[8]
  Viola tricolor (Efficacy in %): 100%
[15]
  Alopecurus myosuroides (Efficacy in %): 80%
[9]
  Pharbitis purpurea (Efficacy in %): 100%
[11]
  Abutilon theophrasti (Efficacy in %): 100%
[12]
  Polygonum convolvulus (Efficacy in %): 80%
